# Data reported in patent publication US5334588A, “Composition for inhibiting transmission of hepatitis B virus” (priority 1991, dated 1994).
# Read-outs that look alike come from different tables or passages of the source.
# Assays:
# [1] = system: ARV-2 strain of AIDS virus; assay: Infectivity of ARV-2 strain of AIDS virus in H9 cells (Table 2); assay type: cell-based; settings: for % Infection: 15 min preincubation, 24 h
# Method: A stock solution of virus containing 3 to 5×10^4 infectious virus particles/ml was preincubated with the various drugs as indicated in Table 2 for 15 minutes. The virus sample was then diluted 4-fold in order to reduce the concentrations of the drugs below levels toxic to H9 cells (see Example 3 below) and mixed with 250,000 H9 cells in a total volume of 1 ml. After 24 hours, the cells were assayed to determine the percentage of the culture expressing viral antigen. This time interval was selected as it allows for only a single round of viral infection to have occurred such that the number of cells infected was a direct reflection of the number of infectious virions present in the original sample.
# macrophages = assay: Rate of killing of macrophage by drugs, trypan-blue (Table 3B); assay type: cell-based, mouse; settings: 100 μg; 20 min incubation; control 36% kill
# Method: In the experiment, peritonial normal mouse macrophages were enriched by attaching to petri dishes and adjusted to a cell concentration of 5 to 10×10^6 /ml. 0.1 ml aliquots of this suspension were plated in microtiter plates and 10μ and 5μ of each of four samples was added. The control plate received PBS only. After 20 minutes of incubation in a […], the cells were tested for viability using tryphan-blue dye.
# H9 cells = settings: for % Viab (live cells/live & dead) / Viable Cells/ml: 10 min exposure; for % Viab (live cells/live & dead): after 24 h; for Viable Cells/ml: viability after 24 h
# Method: The toxicity of the various agents used in the antiviral compositions of the invention to human T4 -lymphocytes (H9 cells and marophages which are the carriers of the AIDS virus) may be relevant to the effectiveness of a drug. This is because killing these cells when present in semen or vaginal fluids may lead to release of virus making it more susceptible to the effects of the drug. With this in mind, the effect of short exposure (10 minutes) of AgSD and other drugs on H9 cells was tested by treating a suspension of H9 cells (1.6×10^6 /ml in HBSS) with […] of each drug or drug combination. After incubating for 10 minutes, the cells were washed twice in thirty volumes of HBSS; resuspended in RPMI 10% FCS+NaPyruvate and plated into 24 well plates at 4×10^5 cells/mi. Cell viability was determined after 24 hours and is reported as numbers of viable cells per ml and viable percentage (live cells/live cells+dead cells) in Table 3A.
# Staph. aureus [2] = assay: Antibacterial efficacy of coated I.V. catheters, Bioassay A (Table 8); assay type: cell-based; settings: Polyurethane I.V. catheter, silicone matrix coating; 10^4 CFU Staph. aureus
# Source text: The coatings were applied by dipping and then drying.
# Staph. aureus is used to challenge the I.V. catheter.
# [3] = system: Rauscher Leukemia Virus (RLV); assay: Infectivity of Rauscher Leukemia Virus (RVB3) in mice, spleen weight (Table 4); assay type: in vivo, Balb/CICR mice; settings: 2% drug in coating solution, 20 days; for Weight of Spleen: average of 6 animals, infected glove control 1,627; for Weight Increase from Control: infected glove control 1,541
# Method: In vivo tests were performed using Rauscher Leukemia Virus (RLV), a recognized retrovirus model (see, e.g., Nature 323, 467-469 (1986); Rupecht et al., Proc. Nat'l. Acad. Sci. USA 82, 7733-7737 (1985)) which is used by the FDA in testing drugs for use in treating AIDS. RLV was introduced into Balb/CICR mice in which it infects the spleen. The level of virus infectivity was quantified by determining the weight increase of the mouse spleen after 20 days from infection.
# Each treatment was prepared by incubating 1.5 ml Dulbecco's Phosphate Buffered Saline (PBS) for 10 minutes at 37° C. in the finger tip of a latex glove. After incubation, as much as possible of the material was removed from the glove. 0.4 ml of PBS was then introduced into the glove and this was the sample which was introduced into the animals. […] Thus two of the groups only had four animals each that were considered.
# […] Each treatment was prepared by incubating 0.4 ml sterile PBS containing RVB3 (a strain of RLV) for 10 minutes in a glove tip which had previously had one of drugs or straight PBS incubated in it as described above. Three additional controls, a PBS containing glove with no virus, a virus sample not incubated in a glove, and a PBS sample not incubated in a glove were also run.
# Candida albicans [4] = assay: Rate of killing of Candida albicans on short exposure (Table 5A); assay type: cell-based; settings: 10 minute incubation, control >50,000
# Method: 3 ml of Saboraud broth containing 10^5 organism of Candida albicans
# were incubated with the above drug. Aliquots were removed at 5 and 10
# minute and were subcultured.
# Gonococcus = assay: Killing of Gonococcus (Table 6); assay type: cell-based; settings: for Colony Counts in Culture: control >50,000
# Method: Drugs were suspended in 5 ml of cultures containing […] of
# gonoccccus and incubated. Aliquots were removed at 5 and 10 minute
# intervals and subcultured for colony counts.
# HSV = assay: Toxicity of drugs for HSV, titer on vero cells (Table 7A); assay type: cell-based; settings: 200 μl of 500 μg/ml stock added to 1 ml virus, 20 min at R.T.; for Titer: read after 48 hours
# Method: One ml HSV at 3 × 10^6/ml was incubated with 200 μliters of
# drugs each 500 μg/ml stock solution. After 20 minutes at
# R.T., the virus was titered on monolayers of vero cells,
# incubatwd for 2 hours, then overlayed with methyl cellulose.
# Virus titers were read after 48 hours. No drug toxicity* was […]
# Candida albicans [5] = assay: Antifungal efficacy of drug coated gloves against Candida albicans (Table 5B); assay type: cell-based; settings: treated glove
# Method: Treated glove fingers were draped over the top of culture
# tubes with the treated side foring the inside of the cup
# shape. Then 3.0 ml of TSB contining 10^3 organisms of Candida
# albicans was dispensed in each finger and all placed in the
# water bath shaker at 37° C. Samples were removed at 15
# minutes, 1 hour, 2 hours, and 4 hours. They were diluted 1-
# 10 and plated on blood agar in 2.0 ml amounts.
# Staph. aureus [6] = assay: Antibacterial efficacy of drug coated gloves against Staph. aureus (Table 9); assay type: cell-based; settings: 1% in coating solution
# Method: The fingers of latex gloves were washed and dried. They were then sprayed with a fine mist spray of a coating solution to provide a uniform coating of solution on the glove surface, sufficient to provide complete wetting thereof without runoff. The coating solutions were prepared by dissolving 1% Silicate®Medical Adhesive Type A and 1% of the silicone MDX4-4159 in ethyl acetate, followed by dissolving and dispersing the chlorhexidine acetate and silver sulfadiazine, respectively, therein. The coating was air dried for 24 hours and the gloves tested using the following test:
# Treated glove fingers were draped over the tops of culture tubes with the treated side with sprayed on coating forming the inside of the cup shape. Then 3.0 ml of TSB containing 10^4 colony forming units of Staph. aureus was dispensed in each finger and all placed in a water bath shaker at 37° C. Samples were removed at 15 minutes, 1 hour, 2 hours, and 4 hours, diluted 1-10, and the solution plated on blood agar in 2.0 ml amounts.
# HIV-I = settings: 10 minutes exposure; HIBICLENS or HIBISTAT dilutions; C3-44 cells; cited from earlier work
molecule,measurement,setting,value
"[H]/N=C(\N/C(=N/[H])NCCCCCCNC(=N)NC(=N)Nc1ccc(Cl)cc1)Nc1ccc(Cl)cc1 [CHA, chlorhexidine acetate]",% infection versus control at 2.5 µg/mL,"[1]; H9, 24 h, drug during incubation 10 μg/ml, final 2.5 μg/ml, read-out: % Infection v. Control",108%
same,% Infection,"[1]; drug during incubation 10 μg/ml, final 2.5 μg/ml",3.35%
same,% Kill,macrophages,100%
same,condition of cells,H9 cells,Cells in terrible condition.
same,% Viab (live cells/live & dead),H9 cells; 50 (ml/ml as printed in text),73%
same,% Viab (live cells/live & dead),H9 cells; 100 (ml/ml as printed in text),20%
same,Days of Activity,Staph. aureus [2],2 days
"[H]/N=C(\N/C(=N/[H])NCCCCCCNC(=N)NC(=N)Nc1ccc(Cl)cc1)Nc1ccc(Cl)cc1 [Chlorhexidine, chlorhexidine]",Weight of Spleen,[3],234 mg
same,Weight Increase from Control,[3],148 mg
same,Colony Counts in Culture,Candida albicans [4]; concentration 100 (unit not given),30
same,Colony Counts in Culture,"Gonococcus; 100 μg/ml, 5 Minutes","2,000"
same,Colony Counts in Culture,"Gonococcus; 100 μg/ml, 10 Minutes",10
same,% Inhibition,HSV,0%
same,Titer,HSV,2.7 × 10^6
same,Colony Counts in Culture,"Candida albicans [5]; 1 Hour, control 2,000",0
same,Colony Counts in Culture,"Candida albicans [5]; 2 Hours, control 4,000",0
same,Colony Counts in Culture,"Candida albicans [5]; 4 Hours, control 6,000",0
same,Colony Counts in Culture,"Candida albicans [5]; 15 Minutes, control 1,400",75
same,viral infectivity,[1]; 10 μg/ml,did not itself reduce viral infectivity
same,effectiveness for reducing infectivity of AIDS virus,"[1]; low concentrations, combination compared with AgSD alone",no effect on infectivity of AIDS virus
same,Colony Counts in Culture,"Staph. aureus [6]; 15 min., control 12,000",100
same,Colony Counts in Culture,"Staph. aureus [6]; 1 hour, control 15,000",0
same,Colony Counts in Culture,"Staph. aureus [6]; 2 hours, control 20,000",0
same,Colony Counts in Culture,"Staph. aureus [6]; 4 hours, control 50,000",0
CC(=O)O[C@H]1C[C@@]2(C)[C@@H](C[C@@H](O)[C@H]3[C@@]4(C)CC[C@@H](O)[C@@H](C)[C@@H]4CC[C@@]32C)/C1=C(\CCC=C(C)C)C(=O)O [Fusidic acid],Weight of Spleen,[3],107 mg
same,Weight Increase from Control,[3],21 mg
"C[C@H](CCC(=O)O)[C@H]1CC[C@H]2[C@@H]3CC[C@@H]4C[C@H](O)CC[C@]4(C)[C@H]3C[C@H](O)[C@]12C [NaDC, sodium deoxycholate]",Weight of Spleen,[3],109 mg
same,Weight Increase from Control,[3],23 mg
same,Colony Counts in Culture,"Candida albicans [4]; concentration 1,000 (unit not given)","8,000"
same,Colony Counts in Culture,"Gonococcus; 1,000 μg/ml, 5 Minutes","12,000"
same,Colony Counts in Culture,"Gonococcus; 1,000 μg/ml, 10 Minutes","4,000"
same,% Inhibition,HSV,0%
same,Titer,HSV,3.2 × 10^6
same,% infection versus control at 10 µg/mL,"[1]; H9, 24 h, read-out: % Infection v. Control",108%
same,% Infection,"[1]; drug during incubation 40 μg/ml, final 10.0 μg/ml",3.35%
same,% Viab (live cells/live & dead),H9 cells; 50 (ml/ml as printed in text),73%
same,Viable Cells/ml,H9 cells; 50 (ml/ml as printed in text),1.2 × 10^6 Cells/ml
same,% Viab (live cells/live & dead),H9 cells; 100 (ml/ml as printed in text),44%
same,Viable Cells/ml,H9 cells; 100 (ml/ml as printed in text),2.0 × 10^6 Cells/ml
N=C(NCCCCCCNC(=N)NC(=N)Nc1ccc(Cl)cc1)NC(=N)Nc1ccc(Cl)cc1.O=C(O)[C@H](O)[C@@H](O)[C@H](O)[C@H](O)CO.O=C(O)[C@H](O)[C@@H](O)[C@H](O)[C@H](O)CO [chlorohexidine gluconate],concentration not effective to prevent HIV-I infection,HIV-I,≤ 0.01%
benzalkonium chloride,% Inhibition,HSV,98%
same,Titer,HSV,5.2 × 10^4
nonoxynol,Colony Counts in Culture,Candida albicans [4]; 0.2%,"> 50,000"
same,Colony Counts in Culture,"Gonococcus; 0.1%, 5 Minutes",40
same,Colony Counts in Culture,"Gonococcus; 0.1%, 10 Minutes",70
same,effectiveness against gonococcus,Gonococcus; general statement,effective against gonococcus
